Source: paper PMC9024893, “1,2,4-Trioxolane and 1,2,4,5-Tetraoxane Endoperoxides against Old-World Leishmania Parasites: In Vitro Activity and Mode of Action” (Pharmaceuticals, 2022)

Key:
[1] = Cytotoxicity assay (MTT), J774A.1 cell line; assay type: cell-based; conditions: mouse
Protocol: (§1) Adherent BALB/c mouse macrophage cell line J774A.1 (ATCC® TIB 67™) and suspension human acute monocytic leukemic cell line THP-1 (ATCC® TIB-202™) were purchased from DSMZ, Germany were cultured and maintained in DMEM medium (Gibco) and RPMI 1640 (Sigma), respectively, supplemented with 10% FBS, 1% penicillin-streptomycin (Sigma) and L-glutamine 200 mM (Sigma), at 37 °C, 5% CO2.
(§2) Cell lines J774A.1 and THP-1 were used to estimate CC50 of the peroxides. Cells were plated in 96-well flat bottom culture plates (VWR) at 5 × 10^5 cells/mL. The monocytic cell line THP-1 was differentiated in RPMI medium with phorbol myristate acetate (PMA) (25 ng/mL; Sigma) for 24 h, followed by a washing step with RPMI medium. Six serial concentrations of the compounds (Table 3) were added in four replicates and the plates were incubated at 37 °C ± 1 °C, 5% CO2 for 48 h. An untreated control (cells in DMEM or RPMI medium plus 0.5% DMSO as vehicle) and blank (medium alone) were plated out in quadruplicate. After the incubation period, 20 µL/well of MTT [3-(4,5-dimethylthiazol-2-yl)-2,5-diphenyltetrazolium bromide] was added to a final concentration of 5 µg/mL in 1× phosphate-buffered saline (PBS, Merck), with an additional 4 h incubation at 36 °C, as previously described. The formazan salts were resuspended in 2-propanol (Merck) and the cell viability was determined by measuring absorbance with a Synergy ™HTX Multi Mode Microplate Reader at 595 nm (Dynex Technologies). The CC50 values were calculated fitting the data as a non-linear regression with variable slope using a dose-response inhibitory model, in the GraphPad Prism V 8.0 program. Each compound was tested in three independent assays.

[2] = test system: L. infantum IMT151 intracellular amastigotes; test: Intracellular amastigotes assay in J774A.1 macrophages, L. infantum; assay type: cell-based; conditions: Leishmania infantum, J774.A1; 48 h incubation, J774A.1 host cells; read-out: IC50 ± SD, L. infantum intracellular amastigotes
Protocol: (§3) The intracellular assay using the macrophage J774A.1 cell line was performed with the compounds that presented best SI on the promastigote’s susceptibility assay. J774A.1 cells were adjusted to 2.5 × 10^5 cells/mL in supplemented DMEM medium. 200 μL/well of the cell suspension was placed in 16 well Lab Tek culture glass slides (Nunc), and incubated at 37 °C ± 1 °C, 5% CO2, for 3 h, to enable the cells to adhere to the slides. After a washing step with DMEM to discard non-attached cells, the cells were infected with 2.5 × 10^6 cells/mL promastigotes in a 10:1 parasite-host cell proportion for 24 h. Compounds and control drugs were added in two replicates of six serial concentrations (Table 3). As negative control, macrophages were cultivated in medium and DMSO, as vehicle solution (0.5% v/v). Slides were incubated for 48 h at the same temperature. After a washing step with 1× PBS (Sigma), slides were fixed and stained, and the infection index was calculated according to [34] by counting the number of intracellular amastigotes per 100 macrophages, in treated and untreated cells. Two independent experiments were performed to determine the amastigotes IC50 of each compound, which was calculated by fitting the data as a non-linear regression with variable slope using a dose-response inhibitory model, in the GraphPad Prism V 8.0 program. SI was determined as described above.

[3] = test system: L. infantum promastigotes; test: Flow cytometry detection of phosphatidylserine externalization (Annexin V/PI); assay type: cell-based, Leishmania infantum; conditions: 2 × IC50, 48 h, mean ± SEM
Protocol: The L. infantum strain (MHOM/PT/1988/IMT151) was chosen for the cytometry analysis and promastigotes at a concentration of 1 × 10^7 parasites/mL were tested against the three compounds evaluated in the intracellular amastigotes assay (LC132, LC137 and LC138). Flow cytometry analysis were performed in a CytoFlex flow cytometer (Beckman Coulter), at an excitation wavelength of 488 nm (blue laser). Data acquisition were collected and registered using channels FL1 (flurescein isothiocyanate, FITC) with a BP filter (525 ± 40 nm) for Fluorescein and FL2 (IP) with a BP filter (570 ± 20 nm) for propidium iodide (PI) and 10,000 total events per sample were analysed using CytExpert v2.0.0.153 software. Samples were analysed in triplicates and two to three independent experiments were performed. Values are expressed as a percentage of cells for a given marker, relatively to the number of cells analysed ± standard error of mean (SEM).
To distinguish apoptotic cell death from necrotic cell death, cells were counterstained with PI, a non-permeable stain with affinity for nucleic acids, as it selectively enters necrotic cells. […] After adding 400 μL of 1 × Binding Buffer, samples were analysed in Cytoflex flow cytometer. Annexin V-FITC and PI were measured in FL1 and FL2 channels, respectively. […]

[4] = test system: L. donovani BD14 intracellular amastigotes; test: Intracellular amastigotes assay in J774A.1 macrophages, L. donovani; assay type: cell-based; conditions: Leishmania donovani, J774.A1; 48 h incubation, J774A.1 host cells; read-out: IC50 ± SD, L. donovani intracellular amastigotes
Protocol: as §3

[5] = Cytotoxicity assay (MTT), PMA-differentiated THP-1 cell line; assay type: cell-based; conditions: human
Protocol: as §1, §2

SMILES: C[C@@H]1[C@H](O)[C@@H](C)/C=C/C=C/C=C/C=C/C=C/C=C/C=C/[C@H](O[C@@H]2O[C@H](C)[C@@H](O)[C@H](N)[C@@H]2O)C[C@@H]2O[C@](O)(C[C@@H](O)C[C@@H](O)[C@H](O)CC[C@@H](O)C[C@@H](O)CC(=O)O[C@H]1C)C[C@H](O)[C@H]2C(=O)O [AmB, amphotericin B, reference compound]
- CC50 at 48 h [1]: 71.9 ± 5.4 µM
- IC50 [2]: 0.3 ± 0.1 µM
- late apoptosis (Annexin+/PI+) cell population [3]: 17.5 ± 0.9%
- IC50 [4]: 0.1 µM
- CC50 at 48 h [5]: 23.2 ± 3 µM

SMILES: CCOC(=O)C1CCC2(CC1)OOC1(OO2)C2CC3CC(C2)CC1C3 (stereo not shown) [LC138]
- CC50 at 48 h ([1]; J774A.1 macrophage cells, 48 h incubation, MTT, read-out: CC50 ± SD, J774A.1 Cell Line): 528 ± 54 µM
- IC50 [2]: 23.9 ± 2.7 µM
- late apoptosis (Annexin+/PI+) cell population [3]: 20.5 ± 4.2%
- IC50 [4]: 426 ± 25.5 µM
- CC50 at 48 h ([5]; PMA-differentiated THP-1 cells, 48 h incubation, MTT, read-out: CC50 ± SD, THP-1 Cell Line): 2839 ± 15 µM
